Experimental data from patent US6683103B2, “Sulfonamides for treatment of endothelin-mediated disorders” (Texas Biotechnology Corporation, priority 1997, dated 2004).
Read-outs that look alike come from different tables or passages of the source. Marks after values point to notes of the source that are not given here.

Tests used:
[1] = Oral half-life and peak plasma levels in rat; format: in vivo
Excerpt: As used herein, bioavailability refers to the rate and extent of absorption. Methods for determining bioavailability are well known to those of skill in the art. For example, bioavailability of any of the compounds described herein can be determined empirically by administration of the compound to an animal, followed by taking blood samples over time and measuring the blood concentration of the compound. In vivo half life (t½) is defined as the time it takes for the concentration of the compound in the blood to be reduced by one-half. Estimations of the area under the curve for intravenous administration can be used to estimate the area under the curve for oral administration, yielding bioavailability data. See, e.q., Milo Gibal (1991) Biopharmaceutics and Pharmacology, 4th edition (Lea and Sediger).
Table 4 lists oral half-life, bioavailability, and in vivo activity of selected exemplary compounds. The in vivo activity was measured in a pulmonary hypertension model and is a measure of the activity of the compounds at selected dosages.

Papp (Table 4) = format: in vitro ADME
human ETA receptors = target: T1, human ETA receptors (Homo sapiens, UniProt P25101); assay: Binding Test #1: inhibition of 125I-ET-1 binding to ETA receptors (TE 671 cell membranes); details: for IC50: read-out: ETA
T1 construct: endogenous in cells; host or cells: TE 671 cells (ATCC HTB 139)
T1 sequence (P25101 21-427): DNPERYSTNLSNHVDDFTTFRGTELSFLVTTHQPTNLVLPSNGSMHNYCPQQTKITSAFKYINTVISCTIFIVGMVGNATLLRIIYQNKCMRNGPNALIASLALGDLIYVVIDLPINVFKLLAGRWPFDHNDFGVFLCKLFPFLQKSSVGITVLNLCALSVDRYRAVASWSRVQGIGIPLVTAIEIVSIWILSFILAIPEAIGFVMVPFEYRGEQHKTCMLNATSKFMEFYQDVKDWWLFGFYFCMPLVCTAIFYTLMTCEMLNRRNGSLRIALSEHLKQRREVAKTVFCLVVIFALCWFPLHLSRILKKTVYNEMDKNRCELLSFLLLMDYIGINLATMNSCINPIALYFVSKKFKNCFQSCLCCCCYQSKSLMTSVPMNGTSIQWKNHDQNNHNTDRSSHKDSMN
Method in brief: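 Radioligand competition in triplicate: ¹²⁵I-endothelin-1 displaced by test compound (1 nM–100 μM final) from ETA-bearing TE 671 cell membranes in HEPES pH 7.4 binding buffer with NaCl, MgCl2 and bacitracin. Incubation 16–18 h at 4 °C (or at 24 °C); 80 nM ET-1 defines nonspecific binding; pellet radioactivity gives percent inhibition.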

[2] = test system: Pulmonary Hypertension model; assay: Pulmonary hypertension model, in vivo efficacy; parameters: species or system rat; key to in vivo Efficacy: ++ effective at 5 mg/kg; − no effect at 5 mg/kg; + effective at 15 mg/kg
Procedure: As used herein, efficacy refers to the maximal effect that can be produced by a compound. Efficacy can be determined by methods known to those of skill in the art. For example, it can be determined by the properties of the compound and its receptor-effector system and is reflected in the plateau of the concentration-effect curve. In vivo efficacy refers to efficacy which is determined in an animal model. For example, in vivo efficacy of the compounds described herein can be determined by amelioration of hypoxia-induced pulmonary hypertension in rat. In this context, in vivo efficacy refers to the ability of a compound to restore an elevated pulmonary artery pressure to a normal value. […] J. Physiol. […] The in vivo activity was measured in a pulmonary hypertension model and is a measure of the activity of the compounds at selected dosages.

human ETB receptor = target: T2, human ETB receptor (Homo sapiens, UniProt P24530); assay: Binding Test #2: inhibition of 125I-ET-1 binding to ETB receptors (transfected COS7 cell membranes); details: Table 1, read-out: ETB
T2 construct: expressed in transfected cells; host or cells: COS7 cells
T2 sequence (P24530 27-442): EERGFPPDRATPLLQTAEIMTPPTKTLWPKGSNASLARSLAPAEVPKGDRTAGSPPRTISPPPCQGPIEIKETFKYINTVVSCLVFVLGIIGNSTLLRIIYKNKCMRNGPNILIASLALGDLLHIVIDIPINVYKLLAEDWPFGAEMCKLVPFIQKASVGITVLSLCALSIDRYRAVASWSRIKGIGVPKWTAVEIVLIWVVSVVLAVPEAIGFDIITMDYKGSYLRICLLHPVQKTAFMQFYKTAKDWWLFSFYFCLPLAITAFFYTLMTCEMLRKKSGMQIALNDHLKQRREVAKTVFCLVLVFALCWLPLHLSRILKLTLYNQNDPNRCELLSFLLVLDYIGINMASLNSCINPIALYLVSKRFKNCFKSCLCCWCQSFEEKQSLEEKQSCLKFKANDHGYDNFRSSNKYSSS
Method in brief: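 Competition with 125I-ET-1 for binding to membranes from COS7 cells transfected with human ETB receptor, used at 1 μg/50 μl binding buffer. Membranes prepared in HEPES pH 7.4 with aprotinin, including a DNase/MnCl2 step at 37 °C for 30 min.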

[3] = test system: DOCA-salt hypertensive rat; assay: Deoxycorticosterone acetate (DOCA)-salt hypertensive rat model; format: in vivo
Procedure: E. Deoxycorticosterone Acetate (DOCA)-Salt Hypertensive Rat Model for Assessing in vivo Activity of Selected Compounds
Selected compounds disclosed herein have been tested for activity in the deoxycorticosterone acetate (DOCA)-salt hypertensive rat model. To perform these tests, silastic MDX4-4210 elastomer implants containing 47 mg (DOCA) were prepared according to the method of Ornmsbee et al. ((1973) the J. Pharm. Sci. 62:255-257). Briefly, DOCA is incorporated into silicon rubber implants for sustained release. To prepare the implants the DOCA is incorporated into unpolymerized silicone rubber, catalyst is added and the mixture is cast in a hemicylindrical shape.
Sprague Dawley rats (7-8 weeks old) were unilaterally nephrectomized under ketamine anesthesia and a DOCA-implant was placed on the left lateral dorsal abdomen of the animal. The rats were allowed to recover for three weeks. During recovery they were permitted free access to normal rat chow and 0.9% NaCl drinking solution in place of drinking water. The rats develop hypertension within 3 weeks.
All animals were used in the tests between 21 and 30 days post surgery. The mean arterial blood pressure in these animals ranged from 165-200 mm Hg.
On the day of experimentation, catheters were inserted under brevital anesthesia into the right femoral artery for measurement of blood pressure, and into the right femoral vein for administration of a selected compound. The animals were placed in a restrainer and allowed to recover for a minimum of 60 min or until a steady mean arterial blood pressure was recorded. At that time, the selected compound or control vehicle was administered either intravenously, as a 60 minute infusion, or orally by oral gavage. Blood pressure was recorded continuously for a further 10 hrs.

[4] = test system: ET-1-induced pressor response; assay: ET-1-induced pressor responses in conscious, autonomically blocked rats; format: in vivo, rat; details: in 30 min at dosages as low as 30 mg/kg
Procedure: Animals were placed in a restrainer and allowed to regain consciousness. Thirty minutes later autonomic blockade was administered (atropine methyl nitrate, 3 mg/kg, IV, followed by propranalol, 2 mg/kg, IV). An hour later animals received a bolus injection of vehicle (0.5 ml) followed thirty minutes later by intravenous bolus administration of ET-1 (Control, 1 μg/kg). Following recovery from this challenge, test-compounds were administered by intravenous bolus administration (0.5 ml) and then re-challenged with ET-1 thirty minutes later. Results are expressed as the percent inhibition of the ET-1-induced pressor response after administration of the test compound compared to the pressor response induced by the control ET-1 challenge. In some cases a third ET-1 challenge was administered ninety minutes after administration of the test compound.

ETA receptor = details: cited from earlier work
ETB receptors = details: tissues in which ETB receptors predominate; cited from earlier work
isolated vascular strips = details: contractile agent in isolated vascular strips; cited from earlier work
[5] = Table 1, † incubation at 24° C.

Compound: CC(=O)c1cc(C)cc(C)c1NC(=O)c1sccc1S(=O)(=O)Nc1onc(C)c1Cl [N-(2-acetyl-4,6-dimethylphenyl)-3-(((4-chloro-3-methyl-5-isoxazolyl)amino)sulfonyl)-2-thiophenecarboxamide]
- Peak Plasma Levels ([1]; in vivo): 57 µg/mL
- POt½ in Rat ([1]; oral): 8.6 h
- Papp (cell printed as %) (Papp (Table 4)): 40%
- ETA/ETB selectivity (human ETA receptors; Table 3): 34000^∥
- IC50 (human ETA receptors; Table 3, † incubation at 24° C.): 0.55 nM
- in vivo Efficacy (footnote e) ([2]; 0.3 mg/kg in vivo): ^eeffective at 0.3 mg/kg in vivo
- in vivo Efficacy ([2]; Pulmonary Hypertension model): ++^e

Compound: Cc1noc(NS(=O)(=O)c2c(Cc3ccc4c(c3)OCO4)sc3ccccc23)c1Br [N-(4-bromo-3-methyl-5-isoxazolyl)-2-[3,4-(methylenedioxy)benzyl]benzo[b]thiophene-3-sulfonamide]
- IC50 (human ETB receptor; incubation at 4° C.): 324 ± 780 nM
- IC50 (human ETB receptor; † incubation at 24° C.): 939 ± 262 nM
- IC50 (human ETA receptors; Table 1, incubation at 4° C.): 1.5 ± 1.4 nM
- IC50 (human ETA receptors; [5]): 7.4 ± 1.1 nM
- effect on blood pressure [3]: effective in decreasing blood pressure

Compound: Cc1noc(NS(=O)(=O)c2ccc(COCc3ccccc3)s2)c1Br [N-(4-bromo-3-methyl-5-isoxazolyl)-5-(benzyloxymethyl)thiophene-2-sulfonamide]
- melting point: 92 °C
- IC50 (human ETB receptor; † incubation at 24° C.): 9000 nM
- IC50 (human ETA receptors; [5]): 12000 nM

Compound: COc1ccc(NC(=O)c2sccc2S(=O)(=O)Nc2onc(C)c2Cl)c(C)c1 [N-(4-chloro-3-methyl-5-isoxazolyl)-2-[4-methoxy-2-methylphenyl)aminocarbonyl]thiophene-3-sulfonamide]
- reduction of pressure [4]: about 30%

Compound: Cc1ccc(NC(=O)c2sccc2S(=O)(=O)Nc2onc(C)c2Cl)cc1 [N-(4-chloro-3-methyl-5-isoxazolyl)-2-[(4-tolyl)aminocarbonyl]thiophene-3-sulfonamide]
- effect on blood pressure [3]: effective in decreasing blood pressure

Compound: COc1cc(C#N)c(NC(=O)c2sccc2S(=O)(=O)Nc2onc(C)c2Cl)cc1OC [N-(4-chloro-3-methyl-5-isoxazolyl)-2-[{2-cyano-4,5-dimethoxyphenyl)aminocarbonyl]thiophene-3-sulfonamide]
- reduction of pressure [4]: about 30%

Compound: Cc1noc(NS(=O)(=O)c2ccsc2CC(O)c2ccc3c(c2)OCO3)c1Cl (stereo not drawn) [N-(4-chloro-3-methyl-5-isoxazolyl)-2-[β-hydroxy(3,4-methylenedioxy)phenylethyl]thiophene-3-sulfonamide]
- IC50 (human ETB receptor; † incubation at 24° C.): 16000 nM
- IC50 (human ETA receptors; [5]): 53 nM
- effect on blood pressure [3]: effective in decreasing blood pressure

Compound: CC(=O)c1cc2c(cc1NC(=O)c1sccc1S(=O)(=O)Nc1onc(C)c1Cl)OCO2 [N-(4-chloro-3-methyl-5-isoxazolyl)-2-{[2-acetyl-4,5-(methylenedioxy)phenyl]aminocarbonyl}thiophene-3-sulfonamide]
- reduction of pressure [4]: about 30%
- IC50 (human ETB receptor; † incubation at 24° C.): 31600 nM
- IC50 (human ETA receptors; [5]): 10 nM

Compound: cyclo(D-Glu-L-Ala-allo-D-lle-L-Leu-D-Trp) [BE-18257B]
- IC50 (ETA receptor; aortic smooth muscle): 1400 nM
- IC50 (ETA receptor; cultured aortic smooth muscle cells): 500 nM
- IC50 (ETA receptor; ventricle membranes): 800 nM
- concentration up to which binding is not inhibited (ETB receptors): > 100 µM

Compound: endothelin-1: potent twenty-one amino acid peptide vasoconstrictor
- EC50 (isolated vascular strips): 0.4 nM
